For orientation: AC50 means the concentration at which the activity in the assay is half-maximal.

Like-named read-outs stand apart in the source and are kept apart here. Where only a bound is given, the exact number is not on record here.

This note sets out measurements from patent publication US20250262201A1, “COMPOUNDS AND METHODS USEFUL FOR STABILIZING PHENYLALANINE HYDROXYLASE MUTATIONS” (Agios Pharmaceuticals, Inc., priority 2022, published 2025).

This experiment concerns the target T1, human PAH with the R408W mutation (Homo sapiens, UniProt P00439, R408W).
T1 construct: expressed in transfected cells
T1 sequence (P00439 1-452 R408W): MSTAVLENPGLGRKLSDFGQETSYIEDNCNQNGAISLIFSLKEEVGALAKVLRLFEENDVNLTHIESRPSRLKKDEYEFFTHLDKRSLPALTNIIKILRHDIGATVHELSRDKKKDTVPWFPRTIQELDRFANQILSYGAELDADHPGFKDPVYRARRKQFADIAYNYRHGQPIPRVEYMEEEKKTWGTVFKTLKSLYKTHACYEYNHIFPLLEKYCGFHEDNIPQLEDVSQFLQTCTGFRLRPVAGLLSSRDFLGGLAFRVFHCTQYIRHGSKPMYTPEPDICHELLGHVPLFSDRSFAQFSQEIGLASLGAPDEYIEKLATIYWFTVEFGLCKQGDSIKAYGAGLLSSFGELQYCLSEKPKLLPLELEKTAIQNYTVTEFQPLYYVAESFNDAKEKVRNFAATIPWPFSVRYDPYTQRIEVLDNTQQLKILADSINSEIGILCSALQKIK
Briefly: Cell Based Phenylalanine Flux Assay. Further details: scale not given here. The note with it: 13C-Tyrosine by LC-MS, average where tested multiple times.

Where [1] appears, read: A375 R408W cells, 24 hrs with compound, then 20 μM sepiapterin and 800 μM 13C9,15N-Phenylalanine for 4 hours.
[2] abbreviates: A375 cells expressing human R408W PAH, 24 hrs compound incubation, read-out: AC50.
Setting [3] is: A375 R408W cells, 24 hrs with compound, then 20 μM sepiapterin and 800 μM 13C9,15N-Phenylalanine for 4 hours, read-out: AC50.

On to `Cc1nc(C(=O)N2CCc3[nH]cnc3C2c2ncc3ccccc3n2)n(C)n1` (stereo not shown), for which the AC50 entry under setting [1] is on record as “E, E”.
As to `O=C(c1nnc(-c2cc(C(F)(F)F)ccn2)o1)N1CCc2[nH]cnc2C1c1ccc2ccccc2n1` (stereo in doubt) [Example 107, (R)-(4-(quinolin-2-yl)-6,7-dihydro-1H-imidazo[4,5-c]pyridin-5(4H)-yl)(5-(4-(trifluoromethyl)pyridin-2-yl)-1,3,4-oxadiazol-2-yl)methanone], the concentration at half-maximal activity (AC50) under setting [2] is 500 to 1000 nM.
On the same count and under the same terms, the same measure for `O=C(c1cncs1)N1CCc2[nH]cnc2C1c1ccc2ccccc2n1` (stereo in doubt) [Example 6, (S)-(4-(quinolin-2-yl)-6,7-dihydro-1H-imidazo[4,5-c]pyridin-5(4H)-yl)(thiazol-5-yl)methanone]: over 5000 nM; for `N#Cc1ncoc1C(=O)N1CCc2[nH]cnc2C1c1ccc2ccccc2n1` (stereo in doubt) [Example 57, (R)-5-(4-(quinolin-2-yl)-4,5,6,7-tetrahydro-1H-imidazo[4,5-c]pyridine-5-carbonyl)oxazole-4-carbonitrile]: under 500 nM; for `C[C@@H]1CN(C(=O)c2oc(C(C)(C)O)nc2C2CC2)[C@H](c2cc3ccccc3cn2)c2nc[nH]c21` [Example 402, (4-cyclopropyl-2-(2-hydroxypropan-2-yl)oxazol-5-yl)((4R,7R)-4-(isoquinolin-3-yl)-7-methyl-6,7-dihydro-1H-imidazo[4,5-c]pyridin-5(4H)-yl)methanone]: under 500 nM.
Same read-out and setting: the same measure for `Cc1nc(-c2ccccn2)oc1C(=O)N1CCc2[nH]cnc2[C@H]1c1ncc2ccccc2n1` [Example 193, (S)-(4-methyl-2-(pyridin-2-yl)oxazol-5-yl)(4-(quinazolin-2-yl)-6,7-dihydro-1H-imidazo[4,5-c]pyridin-5(4H)-yl)methanone]: under 500 nM; for `COCc1nc(C(F)F)c(C(=O)N2CCc3[nH]cnc3C2c2ccc3ccccc3n2)o1` (stereo in doubt) [Example 78, (S)-(4-(difluoromethyl)-2-(methoxymethyl)oxazol-5-yl)(4-(quinolin-2-yl)-6,7-dihydro-1H-imidazo[4,5-c]pyridin-5(4H)-yl)methanone]: under 500 nM.
`Cc1nc(CCN2CC(F)C2)oc1C(=O)N1CCc2[nH]cnc2C1c1ccc2ccccc2n1` (stereo not shown): the AC50 under setting [3] was over 5000 nM.
Still for that read-out and setting: the same measure for `CC1CN(C(=O)c2nnc(C(C)(C)O)o2)C(c2cc3ccccc3cn2)c2nc[nH]c21` (stereo not shown): 1000 to 5000 nM.
On to `C[C@H]1CN(C(=O)c2oc(-c3ccccn3)nc2C2CC2)[C@@H](c2cc3ccccc3cn2)c2nc[nH]c21` [Example 408, (4-cyclopropyl-2-(pyridin-2-yl)oxazol-5-yl)((4S,7S)-4-(isoquinolin-3-yl)-7-methyl-6,7-dihydro-1H-imidazo[4,5-c]pyridin-5(4H)-yl)methanone], for which the AC50 under setting [2] was 500 to 1000 nM.
Still for that read-out and setting: the same measure for `O=C(c1nnc(N2CC(F)C2)o1)N1CCc2[nH]cnc2[C@H]1c1cc2ccccc2cn1` [Example 424, (R)-(5-(3-fluoroazetidin-1-yl)-1,3,4-oxadiazol-2-yl)(4-(isoquinolin-3-yl)-6,7-dihydro-1H-imidazo[4,5-c]pyridin-5(4H)-yl)methanone]: under 500 nM.
As for `O=C(c1oc(-c2ncccn2)nc1C(F)F)N1CCc2[nH]cnc2C1c1ncc2ccccc2n1` (stereo not shown), the AC50 result under setting [1] is recorded as “E, E”.
Still for that read-out and setting: the same measure for `CN1CCN(c2nc(C(F)F)c(C(=O)N3CCc4[nH]cnc4C3c3ncc4ccccc4n3)o2)CC1` (stereo not shown): “E, E”.
On to `O=C(c1oc(-c2ccccn2)nc1C1CC1)N1CCCc2[nH]cnc2[C@H]1c1cc2ccccc2cn1` (single isomer, unassigned) [Example 379], for which, under setting [2], the AC50 lay in the range of 1000 to 5000 nM.
With `O=C(c1ocnc1C(F)F)N1CCc2[nH]cnc2C1c1ncc2ccccc2n1` (stereo not shown), the AC50 entry under setting [1] was “E, E”.
Take `CC(C)(F)c1ncc(C(=O)N2CCc3[nH]cnc3[C@H]2c2cn3ccccc3n2)s1` [Example 248, (R)-(2-(2-fluoropropan-2-yl)thiazol-5-yl)(4-(imidazo[1,2-a]pyridin-2-yl)-6,7-dihydro-1H-imidazo[4,5-c]pyridin-5(4H)-yl)methanone]: the AC50 under setting [2] was in the range of 500 to 1000 nM.
`O=C(c1nnc(-c2ncccc2F)o1)N1CCc2[nH]cnc2C1c1ccc2ccccc2n1` (stereo in doubt) [Example 89, (R)-(5-(3-fluoropyridin-2-yl)-1,3,4-oxadiazol-2-yl)(4-(quinolin-2-yl)-6,7-dihydro-1H-imidazo[4,5-c]pyridin-5(4H)-yl)methanone]: the AC50 under setting [2] was under 500 nM.
`CC1CN(C(=O)c2nnc(N3CCC(F)CC3)o2)C(c2cc3ccccc3cn2)c2nc[nH]c21` (stereo not shown): the AC50 under setting [3] was over 5000 nM.
As to `Cn1nc(Cl)cc1C(=O)N1CCc2[nH]cnc2C1c1ccc2ccccc2n1` (stereo in doubt) [Example 263, (R)-(3-chloro-1-methyl-1H-pyrazol-5-yl)(4-(quinolin-2-yl)-6,7-dihydro-1H-imidazo[4,5-c]pyridin-5(4H)-yl)methanone], the AC50 under setting [2] was under 500 nM.
With `CC(C)(O)c1ncc(C(=O)N2CCc3[nH]cnc3C2c2cc3ccccc3cn2)o1` (single isomer, unassigned), the AC50 under setting [3] lay within 1000 to 5000 nM.
Take `Cn1cnc(-c2nnc(C(=O)N3CCc4[nH]cnc4[C@H]3c3cc4ccccc4cn3)o2)c1` [Example 443, (R)-(4-(isoquinolin-3-yl)-6,7-dihydro-1H-imidazo[4,5-c]pyridin-5(4H)-yl)(5-(1-methyl-1H-imidazol-4-yl)-1,3,4-oxadiazol-2-yl)methanone]: the AC50 under setting [2] is under 500 nM.
Take `Cc1ocnc1CC(=O)N1CCc2[nH]cnc2C1c1cn2ccccc2n1` (stereo not shown): the AC50 result under setting [1] is “E, E”.
For `O=C(c1nnc(-c2ccc(OC(F)(F)F)cn2)o1)N1CCc2[nH]cnc2[C@@H]1c1ncc2ccccc2n1` [Example 196, (R)-(4-(quinazolin-2-yl)-6,7-dihydro-1H-imidazo[4,5-c]pyridin-5(4H)-yl)(5-(5-(trifluoromethoxy)pyridin-2-yl)-1,3,4-oxadiazol-2-yl)methanone], under setting [2], the AC50 was over 5000 nM.
For the compound `O=C(c1oc(-c2ccc(F)cn2)nc1C(F)F)N1CCc2[nH]cnc2C1c1ncc2ccccc2n1` (stereo not shown), the AC50 entry under setting [1] is on record as “E, E”.
Take `O=C(N1CCc2[nH]cnc2C1c1ccc2ccccc2n1)C(F)(F)C1(O)CCC1` (stereo in doubt) [Example 56, (S)-2,2-difluoro-2-(1-hydroxycyclobutyl)-1-(4-(quinolin-2-yl)-6,7-dihydro-1H-imidazo[4,5-c]pyridin-5(4H)-yl)ethanone]: under setting [2], the AC50 was 1000 to 5000 nM.
On to `Cc1nnc(C(=O)N2CCc3[nH]cnc3[C@H]2c2cc3ccccc3cn2)o1` [Example 318, (R)-(4-(isoquinolin-3-yl)-6,7-dihydro-1H-imidazo[4,5-c]pyridin-5(4H)-yl)(5-methyl-1,3,4-oxadiazol-2-yl)methanone], for which the AC50 under setting [2] was under 500 nM.
On to `O=C(c1oc(-c2cnccn2)nc1C(F)F)N1CCc2[nH]cnc2C1c1ncc2ccccc2n1` (stereo not shown), for which, under setting [1], the AC50 entry is recorded as “E, E”.
As to `O=C(c1cnc(-c2ccccn2)o1)N1CCc2[nH]cnc2C1c1cc2ccccc2nn1` (stereo not shown), the AC50 under setting [3] is 1000 to 5000 nM.
`O=C(c1nnc(-c2cnccn2)o1)N1CCc2[nH]cnc2[C@H]1c1cc2ccccc2cn1` [Example 469, (R)-(4-(isoquinolin-3-yl)-6,7-dihydro-1H-imidazo[4,5-c]pyridin-5(4H)-yl)(5-(pyrazin-2-yl)-1,3,4-oxadiazol-2-yl)methanone]: under setting [2], the half-maximal activity concentration (AC50) was under 500 nM.
On to `O=C(c1nnc(-c2cnn(C(F)F)c2)o1)N1CCc2[nH]cnc2C1c1ccc2ccccc2n1` (stereo in doubt) [Example 64, (S)-(5-(1-(difluoromethyl)-1H-pyrazol-4-yl)-1,3,4-oxadiazol-2-yl)(4-(quinolin-2-yl)-6,7-dihydro-1H-imidazo[4,5-c]pyridin-5(4H)-yl)methanone], for which the AC50 under setting [2] is over 5000 nM.
`Cc1nc(C(C)(C)O)oc1C(=O)N1CCc2[nH]cnc2C1c1cn2ccccc2n1` (stereo not shown): under setting [3], the AC50 was in the range of 1000 to 5000 nM.
On the same count and under the same terms, under `COCCNc1nnc(C(=O)N2C[C@@H](C)c3[nH]cnc3[C@H]2c2cc3ccccc3cn2)o1` (single isomer, unassigned) stands over 5000 nM.
Consider `O=C(CCC1CC1)N1CCc2[nH]cnc2[C@@H]1c1cn2ccccc2n1` [Example 241, (S)-3-cyclopropyl-1-(4-(imidazo[1,2-a]pyridin-2-yl)-6,7-dihydro-1H-imidazo[4,5-c]pyridin-5(4H)-yl)propan-1-one], for which the AC50 under setting [2] is over 5000 nM.
Regarding `O=C(CCc1cnco1)N1CCc2[nH]cnc2C1c1cn2ccccc2n1` (stereo not shown), the AC50 under setting [3] lay in the range of 1000 to 5000 nM.
The same measure, in the same setting: under `Cc1ncoc1C(=O)N1CC(C)c2[nH]cnc2C1c1cc2ccccc2cn1` (stereo not shown) stands over 5000 nM.
As to `Cc1nc(C2(O)CCC2)oc1C(=O)N1CCc2[nH]cnc2C1c1ccc2ccccc2n1` (stereo in doubt) [Example 102, (S)-(2-(1-hydroxycyclobutyl)-4-methyloxazol-5-yl)(4-(quinolin-2-yl)-6,7-dihydro-1H-imidazo[4,5-c]pyridin-5(4H)-yl)methanone], the AC50 under setting [2] was over 5000 nM.
Still for that read-out and setting: the same measure for `O=C(c1ccnn1C(F)F)N1CCc2[nH]cnc2C1c1ccc2ccccc2n1` (stereo in doubt) [Example 82, (S)-(1-(difluoromethyl)-1H-pyrazol-5-yl)(4-(quinolin-2-yl)-6,7-dihydro-1H-imidazo[4,5-c]pyridin-5(4H)-yl)methanone]: over 5000 nM.
